Data published in ChEMBL document CHEMBL6182927, “Heparan Sulfate-Based Neoproteoglycan for Targeted Lysosomal Degradation of Amyloid-β” (J Med Chem, 2025).
Calls of active or inactive are those of the source. The calls are words filed in the database; no cut-off is given here.

Assays:
[1] = biological target: T1, Amyloid-beta precursor protein (Homo sapiens, UniProt P05067); experiment: Binding affinity to amyloid beta (1 to 42) (unknown origin) assessed as dissociation constant by SPR analysis
T1 sequence (P05067 whole entry): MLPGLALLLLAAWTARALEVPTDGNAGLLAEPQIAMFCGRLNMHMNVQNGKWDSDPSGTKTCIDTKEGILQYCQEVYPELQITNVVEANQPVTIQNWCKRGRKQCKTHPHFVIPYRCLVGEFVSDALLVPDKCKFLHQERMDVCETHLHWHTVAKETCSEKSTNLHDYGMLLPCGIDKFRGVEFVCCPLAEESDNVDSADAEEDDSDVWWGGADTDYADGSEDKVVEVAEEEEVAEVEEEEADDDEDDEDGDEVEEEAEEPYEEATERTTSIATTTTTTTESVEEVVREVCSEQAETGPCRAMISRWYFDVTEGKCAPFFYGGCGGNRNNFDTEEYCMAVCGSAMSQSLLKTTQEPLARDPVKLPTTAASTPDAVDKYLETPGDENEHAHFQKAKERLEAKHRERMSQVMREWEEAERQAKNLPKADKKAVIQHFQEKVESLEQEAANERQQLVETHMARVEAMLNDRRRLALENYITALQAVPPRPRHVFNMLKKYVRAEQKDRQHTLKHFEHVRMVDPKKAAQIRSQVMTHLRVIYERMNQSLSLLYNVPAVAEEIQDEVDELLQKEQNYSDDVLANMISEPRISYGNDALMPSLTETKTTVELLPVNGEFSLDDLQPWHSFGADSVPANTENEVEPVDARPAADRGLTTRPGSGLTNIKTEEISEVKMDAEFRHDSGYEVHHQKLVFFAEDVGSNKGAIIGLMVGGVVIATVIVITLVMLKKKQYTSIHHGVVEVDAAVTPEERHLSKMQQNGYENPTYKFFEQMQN

[2] = biological target: T1, Amyloid-beta precursor protein; experiment: Binding affinity to amyloid beta (1 to 42) (unknown origin) assessed as binding constant K(off) by SPR analysis
[3] = biological target: T1, Amyloid-beta precursor protein; experiment: Binding affinity to amyloid beta (1 to 42) (unknown origin) assessed as binding constant K(on) by SPR analysis
MDA-MB-468 [4] = experiment: Induction of amyloid beta (1 to 42) degradation in lysosome of human MDA-MB-468 cells assessed as decrease in fluorescence signal at 1 uM incubated for 48 to 72 hrs by FITC based flow cytometry analysis; format: subcellular; conditions: time 48-72 hrs
MDA-MB-468 [5] = experiment: Protection against amyloid beta-induced cytotoxicity in human MDA-MB-468 cells at 0.5 uM by MTT assay; format: functional, cell-based

Kd [1] | K [2] | K [3] | Activity (MDA-MB-468 [4]) | SMILES | Activity (MDA-MB-468 [5])
90.2 nM | 2.21 10^-2/s | 2.45 10^5/Ms |  | NCCOCCO[C@@H]1O[C@@H](COS(=O)(=O)O)[C@@H](O[C@@H]2O[C@@H](COS(=O)(=O)O)[C@@H](O[C@@H]3O[C@@H](COS(=O)(=O)O)[C@@H](O[C@@H]4O[C@@H](COS(=O)(=O)O)[C@@H](OS(=O)(=O)O)[C@H](O)[C@H]4OS(=O)(=O)O)[C@H](O)[C@H]3OS(=O)(=O)O)[C@H](O)[C@H]2OS(=O)(=O)O)[C@H](O)[C@H]1OS(=O)(=O)O | 
90.3 nM | 2.23 10^-2/s | 2.47 10^5/Ms |  | NCCCO[C@@H]1O[C@@H](C(=O)O)[C@@H](O[C@H]2O[C@H](COS(=O)(=O)O)[C@@H](O[C@@H]3O[C@@H](C(=O)O)[C@@H](O[C@H]4O[C@H](COS(=O)(=O)O)[C@@H](O[C@@H]5O[C@@H](C(=O)O)[C@@H](O[C@H]6O[C@H](COS(=O)(=O)O)[C@@H](O)[C@H](O)[C@H]6NS(=O)(=O)O)[C@H](O)[C@H]5OS(=O)(=O)O)[C@H](O)[C@H]4NS(=O)(=O)O)[C@H](O)[C@H]3OS(=O)(=O)O)[C@H](O)[C@H]2NS(=O)(=O)O)[C@H](O)[C@H]1OS(=O)(=O)O | 
 |  |  | Active | CC(C)CCC[C@@H](C)[C@H]1CC[C@H]2[C@@H]3CC=C4C[C@@H](OCCC(=O)NCCOCCOCCNC(=O)CCC(=O)N5Cc6ccccc6-c6c(nnn6CCC[C@H](NC(=O)[C@H](CCCCNC(=O)CCn6nnc7c6-c6ccccc6CN(C(=O)CCC(=O)NCCCO[C@@H]6O[C@@H](C(=O)O)[C@@H](O[C@H]8O[C@H](COS(=O)(=O)O)[C@@H](O[C@@H]9O[C@@H](C(=O)O)[C@@H](O[C@H]%10O[C@H](COS(=O)(=O)O)[C@@H](O[C@@H]%11O[C@@H](C(=O)O)[C@@H](O[C@H]%12O[C@H](COS(=O)(=O)O)[C@@H](O)[C@H](O)[C@H]%12NS(=O)(=O)O)[C@H](O)[C@H]%11OS(=O)(=O)O)[C@H](O)[C@H]%10NS(=O)(=O)O)[C@H](O)[C@H]9OS(=O)(=O)O)[C@H](O)[C@H]8NS(=O)(=O)O)[C@H](O)[C@H]6OS(=O)(=O)O)c6ccccc6-7)NC(=O)[C@H](CCCCNC(=O)CCn6nnc7c6-c6ccccc6CN(C(=O)CCC(=O)NCCCO[C@@H]6O[C@@H](C(=O)O)[C@@H](O[C@H]8O[C@H](COS(=O)(=O)O)[C@@H](O[C@@H]9O[C@@H](C(=O)O)[C@@H](O[C@H]%10O[C@H](COS(=O)(=O)O)[C@@H](O[C@@H]%11O[C@@H](C(=O)O)[C@@H](O[C@H]%12O[C@H](COS(=O)(=O)O)[C@@H](O)[C@H](O)[C@H]%12NS(=O)(=O)O)[C@H](O)[C@H]%11OS(=O)(=O)O)[C@H](O)[C@H]%10NS(=O)(=O)O)[C@H](O)[C@H]9OS(=O)(=O)O)[C@H](O)[C@H]8NS(=O)(=O)O)[C@H](O)[C@H]6OS(=O)(=O)O)c6ccccc6-7)NC(=O)[C@H](CCCCNC(=O)CCn6nnc7c6-c6ccccc6CN(C(=O)CCC(=O)NCCCO[C@@H]6O[C@@H](C(=O)O)[C@@H](O[C@H]8O[C@H](COS(=O)(=O)O)[C@@H](O[C@@H]9O[C@@H](C(=O)O)[C@@H](O[C@H]%10O[C@H](COS(=O)(=O)O)[C@@H](O[C@@H]%11O[C@@H](C(=O)O)[C@@H](O[C@H]%12O[C@H](COS(=O)(=O)O)[C@@H](O)[C@H](O)[C@H]%12NS(=O)(=O)O)[C@H](O)[C@H]%11OS(=O)(=O)O)[C@H](O)[C@H]%10NS(=O)(=O)O)[C@H](O)[C@H]9OS(=O)(=O)O)[C@H](O)[C@H]8NS(=O)(=O)O)[C@H](O)[C@H]6OS(=O)(=O)O)c6ccccc6-7)NC(=O)[C@H](CCCCNC(=O)CCn6nnc7c6-c6ccccc6CN(C(=O)CCC(=O)NCCCO[C@@H]6O[C@@H](C(=O)O)[C@@H](O[C@H]8O[C@H](COS(=O)(=O)O)[C@@H](O[C@@H]9O[C@@H](C(=O)O)[C@@H](O[C@H]%10O[C@H](COS(=O)(=O)O)[C@@H](O[C@@H]%11O[C@@H](C(=O)O)[C@@H](O[C@H]%12O[C@H](COS(=O)(=O)O)[C@@H](O)[C@H](O)[C@H]%12NS(=O)(=O)O)[C@H](O)[C@H]%11OS(=O)(=O)O)[C@H](O)[C@H]%10NS(=O)(=O)O)[C@H](O)[C@H]9OS(=O)(=O)O)[C@H](O)[C@H]8NS(=O)(=O)O)[C@H](O)[C@H]6OS(=O)(=O)O)c6ccccc6-7)NC(=O)[C@H](CCCCNC(=O)CCn6nnc7c6-c6ccccc6CN(C(=O)CCC(=O)NCCCO[C@@H]6O[C@@H](C(=O)O)[C@@H](O[C@H]8O[C@H](COS(=O)(=O)O)[C@@H](O[C@@H]9O[C@@H](C(=O)O)[C@@H](O[C@H]%10O[C@H](COS(=O)(=O)O)[C@@H](O[C@@H]%11O[C@@H](C(=O)O)[C@@H](O[C@H]%12O[C@H](COS(=O)(=O)O)[C@@H](O)[C@H](O)[C@H]%12NS(=O)(=O)O)[C@H](O)[C@H]%11OS(=O)(=O)O)[C@H](O)[C@H]%10NS(=O)(=O)O)[C@H](O)[C@H]9OS(=O)(=O)O)[C@H](O)[C@H]8NS(=O)(=O)O)[C@H](O)[C@H]6OS(=O)(=O)O)c6ccccc6-7)NC(=O)[C@H](C)NC(=O)CCCCC[N+]6=C(/C=C/C=C/C=C7\N(C)c8ccccc8C7(C)C)C(C)(C)c7ccccc76)C(N)=O)-c6ccccc65)CC[C@]4(C)[C@H]3CC[C@]12C | Active
